# According to patent US7138361B2, “Herbicidal heterocycles” (E. I. du Pont de Nemours and Company, priority 2000, dated 2006):
# How the values were obtained:
# Format in all cases: in vivo
# [1] = test system: Surinam grass (Brachiaria decumbens); assay: Test B postemergence; details: 13 to 15 days
# Outline: (§1)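 Visual injury scores, 0 = no effect to 100 = complete control, assigned against controls after 13 to 15 days in the greenhouse. Compounds formulated in non-phytotoxic solvent plus surfactant and applied to soil after planting (pre) or onto foliage of 1- to 4-leaf plants (post).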
# [2] = test system: barnyardgrass (Echinochloa crus-galli); assay: Test B postemergence; details: 13 to 15 days
# Outline: as §1
# [3] = test system: blackgrass (Alopecurus myosuroides); assay: Test B postemergence; details: 13 to 15 days
# Outline: as §1
# corn (Zea mays) [4] = assay: Test B postemergence; details: 13 to 15 days
# Outline: as §1
# [5] = test system: crabgrass (Digitaria sanguinalis); assay: Test B postemergence; details: 13 to 15 days
# Outline: as §1
# [6] = test system: giant foxtail (Setaria faberii); assay: Test B postemergence; details: 13 to 15 days
# Outline: as §1
# [7] = test system: lambsquarters (Chenopodium album); assay: Test B postemergence; details: Rate 500 g/ha, scale 0 to 100, 0 is no effect, 100 is complete control, 13 to 15 days
# Outline: as §1
# [8] = test system: morning glory (Ipomoea hederacea); assay: Test B postemergence; details: Rate 500 g/ha, scale 0 to 100, 0 is no effect, 100 is complete control, 13 to 15 days
# Outline: as §1
# [9] = test system: pigweed (Amaranthus retroflexus); assay: Test B postemergence; details: Rate 500 g/ha, scale 0 to 100, 0 is no effect, 100 is complete control, 13 to 15 days
# Outline: as §1
# [10] = test system: velvetleaf (Abutilon theophrasti); assay: Test B postemergence; details: Rate 500 g/ha, scale 0 to 100, 0 is no effect, 100 is complete control, 13 to 15 days
# Outline: as §1
# [11] = test system: wheat (Triticum aestivum); assay: Test B postemergence; details: Rate 500 g/ha, scale 0 to 100, 0 is no effect, 100 is complete control, 13 to 15 days
# Outline: as §1
# wild oat (Avena fatua) = assay: Test B postemergence; details: Rate 500 g/ha, scale 0 to 100, 0 is no effect, 100 is complete control, 13 to 15 days
# Outline: as §1
# [12] = test system: Surinam grass (Brachiaria decumbens); assay: Test B preemergence
# Outline: as §1
# [13] = test system: barnyardgrass (Echinochloa crus-galli); assay: Test B preemergence
# Outline: as §1
# [14] = test system: cocklebur (Xanthium strumarium); assay: Test B preemergence
# Outline: as §1
# corn (Zea mays) [15] = assay: Test B preemergence
# Outline: as §1
# [16] = test system: crabgrass (Digitaria sanguinalis); assay: Test B preemergence
# Outline: as §1
# [17] = test system: giant foxtail (Setaria faberii); assay: Test B preemergence
# Outline: as §1
# [18] = test system: lambsquarters (Chenopodium album); assay: Test B preemergence
# Outline: as §1
# [19] = test system: morning glory (Ipomoea hederacea); assay: Test B preemergence
# Outline: as §1
# [20] = test system: pigweed (Amaranthus retroflexus); assay: Test B preemergence
# Outline: as §1
# rice (Oryza saliva) = assay: Test B preemergence
# Outline: as §1
# [21] = test system: velvetleaf (Abutilon theophrasti); assay: Test B preemergence
# Outline: as §1
# [22] = test system: smallflower flatsedge (Cyperus difformis); assay: Test C flooded paddy test; details: for Flatsedge plant response rating: Flooded Paddy, scale 0 to 100, 0 no effect, 100 complete control; for Plant response rating, Flatsedge: flooded paddy test, scale 0 to 100 (0 no effect, 100 complete control)
# Outline: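 Visual injury score, 0 (no effect) to 100 (complete control), relative to controls. Paddy plants treated at 2-leaf stage; greenhouse hold 12–14 d before rating.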
# Sunflower [23] = assay: Test C preemergence; details: Rate 500 g/ha, visual evaluation after 12 to 14 days
# Sunflower [24] = assay: Test C preemergence; details: Rate 250 g/ha, scale 0 to 100, 0 no effect, 100 complete control
# [25] = Rate 125 g/ha, scale 0 (no effect) to 100 (complete control)
# [26] = Rate 500 g/ha, scale 0 to 100, 0 is no effect, 100 is complete control
# [27] = Preemergence, Rate 500 g/ha, scale 0 to 100, 0 no effect, 100 complete control
# [28] = preemergence, Rate 125 g/ha, scale of 0 to 100 where 0 is no effect and 100 is complete control, 13 to 15 days
smiles,measurement,setting,value
CCCC(C)c1ccn(C2CCN(c3cccc(OC)c3)C2=O)n1 (centres unmarked) [Compound 99],"Plant response rating, Surinam grass",[1]; [25],0
same,"Plant response rating, Surinam grass",[1]; [26],0
same,"Plant response rating, Barnyardgrass",[2]; [25],0
same,"Plant response rating, Barnyardgrass",[2]; [26],0
same,"Plant response rating, Blackgrass",[3]; [25],0
same,"Plant response rating, Blackgrass",[3]; [26],0
same,"Plant response rating, Corn",corn (Zea mays) [4]; [25],0
same,"Plant response rating, Corn",corn (Zea mays) [4]; [26],0
same,"Plant response rating, Crabgrass",[5]; [25],0
same,"Plant response rating, Crabgrass",[5]; [26],0
same,"Plant response rating, Foxtail, Giant",[6]; [25],0
same,"Plant response rating, Foxtail, Giant",[6]; [26],0
same,"Plant response rating, Lambsquarters",[7],70
same,"Plant response rating, Morningglory",[8],0
same,"Plant response rating, Pigweed",[9],0
same,"Plant response rating, Velvetleaf",[10],0
same,"Plant response rating, Wheat",[11],0
same,"Plant response rating, Wild Oat",wild oat (Avena fatua),0
same,"Plant response rating, Surinam grass",[12]; [27],20
same,"Plant response rating, Surinam grass",[12]; [28],0
same,"Plant response rating, Barnyardgrass",[13]; [27],100
same,"Plant response rating, Barnyardgrass",[13]; [28],0
same,"Plant response rating, Cocklebur",[14]; [27],0
same,"Plant response rating, Cocklebur",[14]; [28],0
same,"Plant response rating, Corn",corn (Zea mays) [15]; [27],30
same,"Plant response rating, Corn",corn (Zea mays) [15]; [28],0
same,"Plant response rating, Crabgrass",[16]; [27],100
same,"Plant response rating, Crabgrass",[16]; [28],0
same,"Plant response rating, Foxtail, Giant",[17]; [27],100
same,"Plant response rating, Foxtail, Giant",[17]; [28],0
same,"Plant response rating, Lambsquarters",[18]; [27],100
same,"Plant response rating, Lambsquarters",[18]; [28],100
same,"Plant response rating, Morningglory",[19]; [27],0
same,"Plant response rating, Morningglory",[19]; [28],0
same,"Plant response rating, Pigweed",[20]; [27],100
same,"Plant response rating, Pigweed",[20]; [28],0
same,"Plant response rating, Rice",rice (Oryza saliva); [27],20
same,"Plant response rating, Rice",rice (Oryza saliva); [28],0
same,"Plant response rating, Velvetleaf",[21]; [27],0
same,"Plant response rating, Velvetleaf",[21]; [28],0
same,Flatsedge plant response rating,[22]; Rate 250 g/ha,100
same,Flatsedge plant response rating,[22]; Rate 500 g/ha,100
same,"Plant response rating, Flatsedge",[22]; Rate 62 g/ha,0
same,"Plant response rating, Flatsedge",[22]; Rate 125 g/ha,90
same,"Plant response rating (0 to 100), Sunflower",Sunflower [23],0
same,"Plant response rating, Sunflower",Sunflower [24],0
CCCC(C)c1ccn(C2CCN(c3cccc(C(F)(F)F)c3)C2=O)n1 (centres unmarked) [Compound 100],"Plant response rating, Surinam grass",[1]; [25],0
same,"Plant response rating, Surinam grass",[1]; [26],0
same,"Plant response rating, Barnyardgrass",[2]; [25],0
same,"Plant response rating, Barnyardgrass",[2]; [26],0
same,"Plant response rating, Blackgrass",[3]; [25],0
same,"Plant response rating, Blackgrass",[3]; [26],0
same,"Plant response rating, Corn",corn (Zea mays) [4]; [25],0
same,"Plant response rating, Corn",corn (Zea mays) [4]; [26],0
same,"Plant response rating, Crabgrass",[5]; [25],0
same,"Plant response rating, Crabgrass",[5]; [26],0
same,"Plant response rating, Foxtail, Giant",[6]; [25],0
same,"Plant response rating, Foxtail, Giant",[6]; [26],0
same,"Plant response rating, Lambsquarters",[7],80
same,"Plant response rating, Morningglory",[8],0
same,"Plant response rating, Pigweed",[9],0
same,"Plant response rating, Velvetleaf",[10],0
same,"Plant response rating, Wheat",[11],0
same,"Plant response rating, Wild Oat",wild oat (Avena fatua),0
same,"Plant response rating, Surinam grass",[12]; [27],20
same,"Plant response rating, Surinam grass",[12]; [28],0
same,"Plant response rating, Barnyardgrass",[13]; [27],100
same,"Plant response rating, Barnyardgrass",[13]; [28],0
same,"Plant response rating, Cocklebur",[14]; [27],0
same,"Plant response rating, Cocklebur",[14]; [28],0
same,"Plant response rating, Corn",corn (Zea mays) [15]; [27],20
same,"Plant response rating, Corn",corn (Zea mays) [15]; [28],0
same,"Plant response rating, Crabgrass",[16]; [27],100
same,"Plant response rating, Crabgrass",[16]; [28],0
same,"Plant response rating, Foxtail, Giant",[17]; [27],70
same,"Plant response rating, Foxtail, Giant",[17]; [28],0
same,"Plant response rating, Lambsquarters",[18]; [27],100
same,"Plant response rating, Lambsquarters",[18]; [28],100
same,"Plant response rating, Morningglory",[19]; [27],0
same,"Plant response rating, Morningglory",[19]; [28],0
same,"Plant response rating, Pigweed",[20]; [27],100
same,"Plant response rating, Pigweed",[20]; [28],70
same,"Plant response rating, Rice",rice (Oryza saliva); [27],20
same,"Plant response rating, Rice",rice (Oryza saliva); [28],0
same,"Plant response rating, Velvetleaf",[21]; [27],0
same,"Plant response rating, Velvetleaf",[21]; [28],0
same,Flatsedge plant response rating,[22]; Rate 250 g/ha,70
same,Flatsedge plant response rating,[22]; Rate 500 g/ha,90
same,"Plant response rating, Flatsedge",[22]; Rate 62 g/ha,70
same,"Plant response rating, Flatsedge",[22]; Rate 125 g/ha,70
same,"Plant response rating (0 to 100), Sunflower",Sunflower [23],0
same,"Plant response rating, Sunflower",Sunflower [24],0
